In patent US20240246964A1 (Arbutus Biopharma Corporation, priority 2021, published 2024):

Tests used:
[1] = target: human PD-L1 (Homo sapiens (Human), UniProt Q9NZQ7); test: T cell activation luciferase reporter cell culture system (T Cell Activation Assay); format: cell-based; details: luciferase reporter assay; PD-L1 aAPC/CHO-K1 cells with PD-1 effector Jurkat T cells
[2] = target: PD-L1 His protein / PD-1 Fc protein (Homo sapiens (Human), UniProt Q9NZQ7); test: HTRF Assay (PD-1/PD-L1 interaction); format: binding; details: PD-L1 His 6 nM, PD-1 Fc 6 nM
Sequence of PD-L1 His protein / PD-1 Fc protein (Q9NZQ7 19-238): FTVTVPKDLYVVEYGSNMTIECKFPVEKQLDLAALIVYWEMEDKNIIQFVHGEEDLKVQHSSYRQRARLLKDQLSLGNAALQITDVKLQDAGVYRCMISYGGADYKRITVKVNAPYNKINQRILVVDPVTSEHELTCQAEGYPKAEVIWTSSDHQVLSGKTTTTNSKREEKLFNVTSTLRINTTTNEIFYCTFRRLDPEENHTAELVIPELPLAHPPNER

Sequence of human PD-L1 (Q9NZQ7 19-290): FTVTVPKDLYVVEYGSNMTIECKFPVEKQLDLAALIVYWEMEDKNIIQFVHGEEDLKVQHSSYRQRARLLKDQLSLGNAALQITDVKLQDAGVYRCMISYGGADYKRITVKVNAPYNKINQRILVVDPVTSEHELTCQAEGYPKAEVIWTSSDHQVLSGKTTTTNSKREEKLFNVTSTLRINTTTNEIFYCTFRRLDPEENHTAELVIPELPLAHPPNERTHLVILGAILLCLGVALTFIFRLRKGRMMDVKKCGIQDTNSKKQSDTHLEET

`COC(=O)C[C@@H](CO)NCc1ccc(-c2nccc(-c3cccc(-c4ccc(CNC5CCN(C(C)=O)CC5)c(OC)n4)c3Cl)c2Cl)cc1OC` [Example 339, Methyl (S)-3-((4-(4-(3-(5-(((1-acetylpiperidin-4-yl)amino)methyl)-6-methoxypyridin-2-yl)-2-chlorophenyl)-3-chloropyridin-2-yl)-2-methoxybenzyl)amino)-4-hydroxybutanoate] showed an EC50 [1] of 97.6 nM and an IC50 [2] of 0.12 nM.
In the case of `COc1cc(-c2nccc(-c3cccc(-c4ccc(CNC5CCN(C(C)=O)CC5)c(OC)n4)c3Cl)c2Cl)ccc1CN[C@H]1CCOC1=O` [Example 340, (S)-3-((4-(4-(3-(5-(((1-Acetylpiperidin-4-yl)amino)methyl)-6-methoxypyridin-2-yl)-2-chlorophenyl)-3-chloropyridin-2-yl)-2-methoxybenzyl)amino)dihydrofuran-2(3H)-one], the EC50 [1] is reported as 523 nM and the IC50 [2] is reported as 0.1 nM.
In the case of `COc1cc(-c2nccc(-c3cccc(-c4ccc(CN5CCC(NC(C)=O)CC5)c(OC)n4)c3Cl)c2Cl)ccc1CNC1CCN(C(C)=O)CC1` [Example 341, N-(1-((6-(3-(2-(4-(((1-acetylpiperidin-4-yl)amino)methyl)-3-methoxyphenyl)-3-chloropyridin-4-yl)-2-chlorophenyl)-2-methoxypyridin-3-yl)methyl)piperidin-4-yl)acetamide], the EC50 [1] is reported as 22.6 nM and the IC50 [2] is reported as 1.14 nM.
With `COc1cc(-c2nccc(-c3cccc(-c4ccc(CNC5CCN(C(C)=O)CC5)c(OC)n4)c3Cl)c2Cl)ccc1CN[C@H](CO)CC(=O)O` [Example 342, (S)-3-((4-(4-(3-(5-(((1-Acetylpiperidin-4-yl)amino)methyl)-6-methoxypyridin-2-yl)-2-chlorophenyl)-3-chloropyridin-2-yl)-2-methoxybenzyl)amino)-4-hydroxybutanoic acid] the EC50 [1] was 339 nM and the IC50 [2] was 0.08 nM.
Work on `COc1cc(-c2nccc(-c3cccc(-c4ccc(CNC5CCN(C(C)=O)CC5)c(OC)n4)c3Cl)c2Cl)ccc1CN[C@@H](CCO)C(=O)O` [Example 343, (4-(4-(3-(5-(((1-Acetylpiperidin-4-yl)amino)methyl)-6-methoxypyridin-2-yl)-2-chlorophenyl)-3-chloropyridin-2-yl)-2-methoxybenzyl)-L-homoserine] yielded an EC50 [1] of 248 nM and an IC50 [2] of 0.09 nM.
Compound `CCC(=O)N1CCC(NCc2ccc(-c3nccc(-c4cccc(-c5ccc(CNC6CCN(C(=O)CC)CC6)c(OC)n5)c4Cl)c3Cl)cc2OC)CC1` [Example 344, 1-(4-(((6-(2-Chloro-3-(3-chloro-2-(3-methoxy-4-(((1-propionylpiperidin-4-yl)amino)methyl)phenyl)pyridin-4-yl)phenyl)-2-methoxypyridin-3-yl)methyl)amino)piperidin-1-yl)propan-1-one] has an EC50 [1] of 14.9 nM and an IC50 [2] of 6.41 nM.
For `COc1cc(-c2nccc(-c3cccc(-c4ccc(CN5CCC6(CC5)CC(=O)N6)c(OC)n4)c3Cl)c2Cl)ccc1CN1CCC2(CC1)CC(=O)N2` [Example 353, 7-((6-(2-Chloro-3-(3-chloro-2-(3-methoxy-4-((2-oxo-1,7-diazaspiro[3.5]nonan-7-yl)methyl)phenyl)pyridin-4-yl)phenyl)-2-methoxypyridin-3-yl)methyl)-1,7-diazaspiro[3.5]nonan-2-one], the EC50 [1] was at least 10000 nM and the IC50 [2] was 0.16 nM.
In the case of `COc1cc(-c2nccc(-c3cccc(-c4ccc(CN5CCC(NC(C)=O)CC5)c(OC)n4)c3Cl)c2Cl)ccc1CN1CC2(CNC(=O)C2)C1` [Example 355, N-(1-((6-(2-Chloro-3-(3-chloro-2-(3-methoxy-4-((7-oxo-2,6-diazaspiro[3.4]octan-2-yl)methyl)phenyl)pyridin-4-yl)phenyl)-2-methoxypyridin-3-yl)methyl)piperidin-4-yl)acetamide], the EC50 [1] is reported as 28.7 nM and the IC50 [2] is reported as 1.27 nM.
In the case of `COc1cc(-c2nccc(-c3cccc(-c4ccc(CNCCCNC(C)=O)c(OC)n4)c3Cl)c2Cl)ccc1CNCCCNC(C)=O` [Example 358, N-(3-(((6-(3-(2-(4-(((3-Acetamidopropyl)amino)methyl)-3-methoxyphenyl)-3-chloropyridin-4-yl)-2-chlorophenyl)-2-methoxypyridin-3-yl)methyl)amino)propyl) acetamide], the EC50 [1] is reported as 64.4 nM and the IC50 [2] is reported as 0.12 nM.
`COc1cc(-c2nccc(-c3cccc(-c4ccc(CNC5CCN(C(C)=O)CC5)c(OC)n4)c3Cl)c2Cl)ccc1CN1CC2(COC2)C1` [Example 380, 1-(4-(((6-(3-(2-(4-((2-Oxa-6-azaspiro[3.3]heptan-6-yl)methyl)-3-methoxyphenyl)-3-chloropyridin-4-yl)-2-chlorophenyl)-2-methoxypyridin-3-yl)methyl)amino)piperidin-1-yl)ethan-1-one] was tested, and the EC50 [1] was 20.5 nM and the IC50 [2] was 1.43 nM.
With `COc1cc(-c2nccc(-c3cccc(-c4ccc(CNC5CCN(C(C)=O)CC5)c(OC)n4)c3Cl)c2Cl)ccc1CNC1CC(C)(C)C1` [Example 381, 1-(4-(((6-(2-Chloro-3-(3-chloro-2-(4-(((3,3-dimethylcyclobutyl)amino)methyl)-3-methoxyphenyl)pyridin-4-yl)phenyl)-2-methoxypyridin-3-yl)methyl)amino)piperidin-1-yl)ethan-1-one] the EC50 [1] was 53.3 nM and the IC50 [2] was 0.184 nM.
`COc1cc(-c2nccc(-c3cccc(-c4ccc(CNC5CCN(C(C)=O)CC5)c(OC)n4)c3Cl)c2Cl)ccc1CNC1CCN(S(C)(=O)=O)CC1` [Example 383, 1-(4-(((6-(2-Chloro-3-(3-chloro-2-(3-methoxy-4-(((1-(methylsulfonyl)piperidin-4-yl)amino)methyl)phenyl)pyridin-4-yl)phenyl)-2-methoxypyridin-3-yl)methyl)amino)piperidin-1-yl)ethan-1-one] was tested, and the EC50 [1] was 14.4 nM and the IC50 [2] was 0.998 nM.
`COc1cc(-c2nccc(-c3cccc(-c4ccc(CN5CC(C)(O)C5)c(OC)n4)c3Cl)c2Cl)ccc1CN1CC(C)(O)C1` [Example 396, 1-((6-(2-Chloro-3-(3-chloro-2-(4-((3-hydroxy-3-methylazetidin-1-yl)methyl)-3-methoxyphenyl)pyridin-4-yl)phenyl)-2-methoxypyridin-3-yl)methyl)-3-methylazetidin-3-ol] was tested, and the EC50 [1] was 15.3 nM and the IC50 [2] was 1.38 nM.
For `COCC(=O)N1CCC(NCc2ccc(-c3nccc(-c4cccc(-c5ccc(CNC6CCN(C(=O)COC)CC6)c(OC)n5)c4Cl)c3Cl)cc2OC)CC1` [Example 397, 1-(4-(((6-(2-Chloro-3-(3-chloro-2-(3-methoxy-4-(((1-(2-methoxyacetyl)piperidin-4-yl)amino)methyl)phenyl)pyridin-4-yl)phenyl)-2-methoxypyridin-3-yl)methyl)amino)piperidin-1-yl)-2-methoxyethan-1-one], the EC50 [1] was 5.71 nM and the IC50 [2] was 0.128 nM.
`COc1cc(-c2nccc(-c3cccc(-c4ccc(CN5CC6(CCC(=O)N6)C5)c(OC)n4)c3Cl)c2Cl)ccc1CN1CC2(CCC(=O)N2)C1` [Example 398, 2-((6-(2-Chloro-3-(3-chloro-2-(3-methoxy-4-((6-oxo-2,5-diazaspiro[3.4]octan-2-yl)methyl)phenyl)pyridin-4-yl)phenyl)-2-methoxypyridin-3-yl)methyl)-2,5-diazaspiro[3.4]octan-6-one] showed an EC50 [1] of 8.54 nM and an IC50 [2] of 0.278 nM.
Work on `COc1cc(-c2nccc(-c3cccc(-c4ccc(CNC5CCN(C(C)=O)CC5)c(OC)n4)c3C)c2Cl)ccc1CNC1CCN(C(C)=O)CC1` [Example 399, 1-(4-(((6-(3-(2-(4-(((1-acetylpiperidin-4-yl)amino)methyl)-3-methoxyphenyl)-3-chloropyridin-4-yl)-2-methylphenyl)-2-methoxypyridin-3-yl)methyl)amino)piperidin-1-yl)ethan-1-one] yielded an EC50 [1] of 77.7 nM and an IC50 [2] of 0.185 nM.
